Source: patent US9878007B2, “Syndecan peptides and polypeptides as inhibitors of vascular endothelial growth factor receptor-2 (VEGFR2) and very late antigen-4 (VLA-4)” (Wisconsin Alumni Research Foundation, priority 2015, dated 2018)

Tests used:
CAG myeloma cells [1] = experiment: Cell spreading / attachment assay of CAG myeloma cells on FN or VCAM-1; type: cell-based, human
Method: Nitrocellulose-coated slides were coated for 2 hr at 37° C. with 40 μg/ml FN (kindly provided by Dr. Donna Peters, University of Wisconsin-Madison) or 5 μg/ml recombinant VCAM-1/Fc chimera (R&D Systems) in calcium and magnesium-free PBS (CMF-PBS; 135 mM NaCl, 2.7 mM KCl, 10.2 mM Na2HPO4-7H20 and 1.75 mM KH2PO4, pH7.4). Slides were blocked for 1 hr at 37° C. with RPMI 1640 containing 1% heat-denatured BSA (plating medium). Cells in plating medium were allowed to attach and spread for 2.5 hr at 37° C. Slides were fixed in 4% EM grade paraformaldehyde (Electron Microscopy Sciences) in CMF-PBS and labeled for 30 min in 0.13 μM rhodamine phalloidin (Invitrogen) in CMF-PBS. Coverslips were mounted in non-fluorescing mounting medium (Immumount; Thermo Shandon) and allowed to dry. All images were acquired with a Nikon Microphot FX microscope using a 20× objective (Nikon; Ex 541-551, DM 580, Barrier 590), Photometric CoolSnap ES camera, and version 7.7.3.0 Metamorph© Imaging software (Molecular Devices). All images represent results from triplicate wells and at least three independent experiments.

VLA-4 and VEGFR2 = molecular target: T1, VLA-4 and VEGFR2 (Homo sapiens, UniProt P05556+P13612+P35968); experiment: Immunostaining for co-localization of GST-S1ED with VLA-4 or VEGFR2; type: cell-based; conditions: HPSE^low cells on FN, 4 μM GST-S1ED, 2.5 hrs
T1 construct: the α4-integrin (VLA-4), which is expressed on myeloma cells; endogenous in cells; host or cells: CAG human myeloma cells (HPSE^low / HPSE^high) plated on fibronectin
Method: (§1) FIGS. 5A-C. Recombinant Sdc1 ectodomain (GST-S1ED) causes capture of VEGFR2 by VLA-4. (FIG. 5A) HPSE^high cells were plated on FN for 2.5 hrs and double stained for VLA-4 and VEGFR2. (FIG. 5B) HPSE^low cells were plated on FN in the presence of 4 μM GST-S1ED. After 2.5 hrs, cells were double-stained for GST to detect the GST-S1ED and VLA-4 or VEGFR2. (FIG. 5C) HPSE^low cells were plated on FN-pre-coated dishes for 2.5 hr in the absence or presence of GST-S1ED and whole cell lysates were prepared for immunoprecipitation with anti-VEGFR2 and VLA-4 antibodies. The associated VLA-4 was detected by immunoblotting with a VLA-4 antibody.
Fixed cells on FN-coated slides were quenched with 0.1 M glycine, permeabilized with CMF-PBS containing 0.1% Triton X-100 for 3 min at room temperature (RT) and blocked with 5% BSA in CMF-PBS. […]

VEGFR2 and VLA-4 [2] = molecular target: T2, VEGFR2 and VLA-4 (Homo sapiens, UniProt P05556+P13612+P35968); experiment: Immunoprecipitation of VEGFR2 and detection of associated VLA-4; type: cell-based; conditions: HPSE^low cells on FN, 2.5 hr, in the presence of GST-S1ED
T2 construct: the α4-integrin (VLA-4), which is expressed on myeloma cells; endogenous in cells; host or cells: CAG human myeloma cells (HPSE^low / HPSE^high) plated on fibronectin
Method: as §1
HPSE^low cells were plated on FN in the presence of 4 μg/ml GST or GST-S1ED for 2.5 hr. The cells were washed with CMF-PBS, then lysed for 20 min on ice in lysis buffer (0.5% Triton X-100 in 50 mM Hepes, 50 mM NaCl and 10 mM EDTA (pH 7.4) containing a 1:1000 dilution of protease inhibitor mixture set III (Calbiochem). Cell lysates were precleared at 13000 rpm for 20 min at 4° C. using 50 μg/ml isotype-matched nonspecific IgG and 30 μl of protein G agarose (GE Healthcare), then incubated at 4° C. overnight with either 10 μg/ml anti-α4-integrin (P1H4) or VEGFR2 (mAb 55B11) or nonspecific mouse IgG. Immunoprecipitated α4-integrin or VEGFR2 were dissolved in SDS sample buffer), electrophoresed and analyzed on western blots as described previously. […]

VLA-4 = molecular target: T3, VLA-4 (Homo sapiens, UniProt P05556+P13612); experiment: GST pull down assay: capture of VLA-4 by GST-S1ED; type: binding
T3 construct: the α4-integrin (VLA-4), which is expressed on myeloma cells; endogenous in cells; host or cells: CAG human myeloma cells (HPSE^low), whole-cell lysate
Method: (§2) FIGS. 6A-G. Peptides derived from the active site in Sdc1 activate or inhibit adhesion and invasion. (FIG. 6A) Transwell migration assays towards FN (for 16 hrs) were performed for HPSE low or high cells in the presence of 0, 0.3, 3, and 30 μM of S1ED^210-240. Cells migrating to the bottom side of the filter were counted from five random images for each treatment. (FIG. 6B) The sequence of S1ED210-240 is shown (SEQ ID NO: 3), as well as […] truncation mutants of the peptide (SEQ ID NOs: 5, 2, 4 and 7). Amino acids shown in red appear necessary for the spreading and invasive activity. (FIG. 6C) Images of HPSE^low and HPSE^high cells plated on FN for 2 hr. (FIG. 6D) HPSE^low cells were treated with 0, 0.3, 3, 10 and 30 μM of S1ED^210-236, S1ED^210-233, or S1ED^214-240, plated on FN for 2 hr, fixed and stained with fluorescent phalloidin. Cells from five random images were quantified for cell attachment and cell spreading. (FIG. 6E) HPSE^high cells were treated with 0, 3, 10, and 30 μM of S1ED^210-236, S1ED^210-233, and S1ED^214-240, plated on FN for 2 hr, then fixed, imaged and quantified as in FIG. 6D. (FIG. 6F) Transwell migration assays towards FN (for 16 hr) were performed for HPSE^low or HPSE^high cells in the presence of 30 μM of S1ED^210-236, S1ED^210-233, S1ED^214-240 and Vandetanib. (FIG. 6G) HPSE^low cell lysates were incubated overnight with glutathione beads coated with GST or GST-S1ED in the absence or presence of 30 μM of S1ED^210-236, S1ED^210-233, and S1ED^214-240. Capture of VLA-4 or VEGFR2 was detected by immunoblotting. Sequences in FIG. 6B are 210-240 (SEQ ID NO: 3), 210-236 (SEQ ID NO: 2), 210-233 (SEQ ID NO: 4), 214-240 (SEQ ID NO: 5) and 214-236 (SEQ ID NO: 7).
(§3) CAG cells were washed with CMF-PBS and then lysed for 20 min on ice in lysis buffer. Cell debris was removed by centrifugation at 13000 rpm for 20 min at 4° C. Whole cell lysates were then incubated at 4° C. overnight with either 3 μM GST or 3 μM GST-S1ED in the absence or presence of 1 μM, 3 μM, and 10 μM S1ED^210-240 peptide. GST or GST-S1ED was captured by addition of glutathione Sepharose and the beads were washed with ice-cold lysis buffer and CMF-PBS, prior to addition of SDS-PAGE sample buffer and analyszed by electrophoresis and western blotting as described previously.

VEGFR2 = molecular target: T4, VEGFR2 (Homo sapiens, UniProt P35968); experiment: GST pull down assay: capture of VEGFR2 by GST-S1ED; type: binding
T4 construct: endogenous in cells; host or cells: CAG human myeloma cells (HPSE^low = empty vector; HPSE^high = human HPSE cDNA)
Method: as §2, §3

VEGFR2 and VLA-4 [3] = molecular target: T2, VEGFR2 and VLA-4; experiment: Activation / inhibition of Sdc1-mediated coupling of VEGFR2 to VLA-4 (FIGS. 6A-H); type: cell-based
Method: as §2
It is envisioned that a peptide that contains binding sites for both VEGFR2 and VLA-4, such as 210-236, has the capacity to bridge both receptors and link them together. This activates signaling that the cells use for migration and invasion. […]

CAG myeloma cells [4] = experiment: Transwell migration assay of CAG myeloma cells towards FN; type: cell-based, human; conditions: 16 hrs
Method: The bottom chambers of Transwell filter chambers (8 μm pores; Corning) were coated with 40 μg/ml of FN. Cells (5×10^5 in 0.2 ml plating medium) were placed in the upper chamber and incubated for 16 hr at 37° C. in the CO2 incubator. After incubation, cells in the upper chamber were removed and cells on the bottom side of the filter were fixed in 4% paraformaldehyde (PFA) and stained with 0.1% Crystal Violet before imaging. Cells from at least five random fields were counted.

[5] = tested on: human SKBr3 mammary carcinoma cells; experiment: Breast cancer xenograft treated with systemic peptide; type: in vivo; conditions: SKBr3 xenografts in nude mice; 1.09 mg/kg/day by Alzet pump for 3 weeks
Method: FIG. 9. Treatment of breast cancer xenograft with systemic S1ED^210-240. 4×10^6 human SKBr3 mammary carcinoma cells were injected in a 1:1 mix with matrigel into the posterior flanks of immunodeficient nude (nu/nu) mice and allowed to establish for one week as palpable tumors. Alzet pumps were then implanted subcutaneously on the anterior dorsal backs of the animals, systemically delivering either phosphate buffered-saline alone (PBS) or S1ED 210-240 peptide in PBS for 3 weeks of treatment. Peptide was delivered at 1.09 mg/kg/day, a concentration estimated to achieve concentrations sufficient to block the VLA-4/VEGFR2 mechanism. Tumor sizes were measured with calipers and converted to tumor volumes using the equation […]. The data are shown as the mean of 12 tumors+/−S.E.M.

T3 sequence (P13612 34-1032): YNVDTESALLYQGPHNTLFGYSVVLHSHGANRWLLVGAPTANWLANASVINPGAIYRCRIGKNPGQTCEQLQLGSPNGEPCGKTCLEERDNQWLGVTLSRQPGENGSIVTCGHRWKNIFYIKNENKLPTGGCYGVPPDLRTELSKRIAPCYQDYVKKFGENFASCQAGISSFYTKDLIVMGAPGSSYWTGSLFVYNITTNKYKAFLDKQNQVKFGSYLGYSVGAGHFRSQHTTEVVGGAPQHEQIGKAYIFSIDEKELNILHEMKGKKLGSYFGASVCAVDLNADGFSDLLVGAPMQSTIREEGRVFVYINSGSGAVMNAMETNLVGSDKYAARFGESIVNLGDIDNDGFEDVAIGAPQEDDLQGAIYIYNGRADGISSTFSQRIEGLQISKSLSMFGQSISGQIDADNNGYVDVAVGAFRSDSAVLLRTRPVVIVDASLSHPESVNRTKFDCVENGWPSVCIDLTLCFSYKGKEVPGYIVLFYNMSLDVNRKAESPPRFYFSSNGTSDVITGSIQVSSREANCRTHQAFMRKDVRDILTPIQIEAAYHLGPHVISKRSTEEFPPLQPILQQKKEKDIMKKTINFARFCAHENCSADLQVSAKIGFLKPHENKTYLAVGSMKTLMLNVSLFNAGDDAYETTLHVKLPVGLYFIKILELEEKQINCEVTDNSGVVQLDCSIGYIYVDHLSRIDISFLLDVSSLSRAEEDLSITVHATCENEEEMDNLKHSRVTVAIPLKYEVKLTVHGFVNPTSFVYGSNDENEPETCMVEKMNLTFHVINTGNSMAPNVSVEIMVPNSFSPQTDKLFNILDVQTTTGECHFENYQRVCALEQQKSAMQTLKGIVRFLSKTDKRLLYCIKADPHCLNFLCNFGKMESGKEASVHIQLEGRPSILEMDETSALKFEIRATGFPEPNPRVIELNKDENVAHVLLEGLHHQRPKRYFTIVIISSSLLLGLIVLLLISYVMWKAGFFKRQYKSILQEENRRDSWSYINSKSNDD
T3 sequence (P05556 21-798): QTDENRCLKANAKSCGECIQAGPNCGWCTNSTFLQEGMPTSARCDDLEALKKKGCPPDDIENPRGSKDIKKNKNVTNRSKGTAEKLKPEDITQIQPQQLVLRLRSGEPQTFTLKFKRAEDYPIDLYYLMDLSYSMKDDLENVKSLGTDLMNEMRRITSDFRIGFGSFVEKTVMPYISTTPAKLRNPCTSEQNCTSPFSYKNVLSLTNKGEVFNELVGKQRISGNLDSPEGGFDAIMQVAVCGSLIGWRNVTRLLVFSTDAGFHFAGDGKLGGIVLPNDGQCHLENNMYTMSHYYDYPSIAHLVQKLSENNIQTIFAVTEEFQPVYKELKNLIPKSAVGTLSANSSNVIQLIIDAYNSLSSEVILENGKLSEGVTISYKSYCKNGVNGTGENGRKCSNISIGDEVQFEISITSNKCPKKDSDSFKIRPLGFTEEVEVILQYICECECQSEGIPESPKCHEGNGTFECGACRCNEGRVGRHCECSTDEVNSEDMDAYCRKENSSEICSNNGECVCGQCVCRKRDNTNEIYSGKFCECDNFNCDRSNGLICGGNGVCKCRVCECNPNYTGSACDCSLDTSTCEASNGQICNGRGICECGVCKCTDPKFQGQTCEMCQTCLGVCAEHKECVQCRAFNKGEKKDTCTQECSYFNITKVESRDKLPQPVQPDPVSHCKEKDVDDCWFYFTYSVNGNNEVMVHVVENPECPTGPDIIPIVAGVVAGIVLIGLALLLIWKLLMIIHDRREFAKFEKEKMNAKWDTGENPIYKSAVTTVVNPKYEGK
T2 sequence (P35968 20-1356): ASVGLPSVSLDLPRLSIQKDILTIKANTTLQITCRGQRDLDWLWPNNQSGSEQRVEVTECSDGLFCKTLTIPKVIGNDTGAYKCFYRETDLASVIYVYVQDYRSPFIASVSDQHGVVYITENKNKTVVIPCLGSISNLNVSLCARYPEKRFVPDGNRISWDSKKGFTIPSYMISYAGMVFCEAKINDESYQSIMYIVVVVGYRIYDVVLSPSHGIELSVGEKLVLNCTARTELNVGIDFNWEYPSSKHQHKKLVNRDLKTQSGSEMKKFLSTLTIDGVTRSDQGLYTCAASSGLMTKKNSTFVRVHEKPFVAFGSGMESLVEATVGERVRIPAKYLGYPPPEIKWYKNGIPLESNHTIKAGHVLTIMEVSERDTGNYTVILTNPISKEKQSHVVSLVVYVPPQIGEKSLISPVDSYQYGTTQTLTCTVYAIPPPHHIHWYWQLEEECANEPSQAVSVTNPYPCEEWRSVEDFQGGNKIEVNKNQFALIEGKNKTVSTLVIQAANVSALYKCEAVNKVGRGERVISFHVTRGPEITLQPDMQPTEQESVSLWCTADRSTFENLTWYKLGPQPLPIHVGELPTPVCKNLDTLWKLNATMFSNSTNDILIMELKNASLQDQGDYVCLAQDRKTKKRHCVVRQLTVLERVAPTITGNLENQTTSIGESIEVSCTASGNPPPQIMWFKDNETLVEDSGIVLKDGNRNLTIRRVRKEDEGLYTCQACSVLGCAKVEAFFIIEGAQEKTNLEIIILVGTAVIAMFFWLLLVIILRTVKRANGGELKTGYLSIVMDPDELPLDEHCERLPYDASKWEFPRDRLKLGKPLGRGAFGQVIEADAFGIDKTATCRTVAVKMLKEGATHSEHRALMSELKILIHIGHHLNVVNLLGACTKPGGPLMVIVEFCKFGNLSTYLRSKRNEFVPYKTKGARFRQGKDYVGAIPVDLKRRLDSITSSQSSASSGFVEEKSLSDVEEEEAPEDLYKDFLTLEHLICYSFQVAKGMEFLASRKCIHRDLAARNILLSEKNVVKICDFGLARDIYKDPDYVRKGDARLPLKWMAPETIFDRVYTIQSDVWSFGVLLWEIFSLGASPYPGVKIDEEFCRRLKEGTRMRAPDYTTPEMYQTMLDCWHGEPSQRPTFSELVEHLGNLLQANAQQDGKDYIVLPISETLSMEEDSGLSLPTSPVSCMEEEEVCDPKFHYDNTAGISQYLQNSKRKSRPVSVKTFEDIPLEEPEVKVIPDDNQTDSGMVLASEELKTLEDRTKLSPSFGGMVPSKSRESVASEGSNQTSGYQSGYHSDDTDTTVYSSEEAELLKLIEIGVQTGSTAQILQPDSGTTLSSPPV
T2 sequence (P13612 34-1032): as the sequence (P13612 34-1032) above
T2 sequence (P05556 21-798): as the sequence (P05556 21-798) above
T4 sequence (P35968 20-1356): as the sequence (P35968 20-1356) above
T1 sequence (P35968 20-1356): as above
T1 sequence (P13612 34-1032): as the sequence (P13612 34-1032) above
T1 sequence (P05556 21-798): as the sequence (P05556 21-798) above

Question: What does the source list for “GST-S1ED: recombinant GST-tagged Sdc1 ectodomain expressed in bacteria and devoid of HS”?
Answer: rescue of HPSE^high polarized phenotype blocked by MMP9 blocking antibody (CAG myeloma cells [1]; on FN, GST-S1ED added): polarized phenotype is rescued; induction of HPSE^low cell spreading by GST-S1ED constructs (CAG myeloma cells [1]; on VCAM-1, 4 μM GST-S1ED constructs): induced cell spreading; co-localization with VEGFR2 or VLA-4 (VLA-4 and VEGFR2): co-localized with VEGFR2 or VLA-4 at the protrusive lamellipodium; co-immunoprecipitation of VLA-4 with VEGFR2 (VEGFR2 and VLA-4 [2]): VLA-4 is co-immunoprecipitated with VEGFR2; capture of VLA-4 by GST-S1ED (VLA-4; CAG myeloma cell lysates): captures both VLA-4 and VEGFR2; capture of VLA-4 by GST-S1ED (VLA-4; HMEC-1 cell lysate): captures VLA-4 and VEGFR2 from HMEC-1 cells lysates; capture of VEGFR2 by GST-S1ED (VEGFR2; CAG myeloma cell lysates): captures both VLA-4 and VEGFR2; capture of VEGFR2 by GST-S1ED (VEGFR2; HMEC-1 cell lysate): captures VLA-4 and VEGFR2 from HMEC-1 cells lysates

Question: Which “concentration at which the peptide inhibits the mechanism” value (VEGFR2 and VLA-4 [3]) does the source give for “S1ED^210-240: peptide corresponding to amino acids 210-240 of syndecan-1 ectodomain (SEQ ID NO: 3) (DFTFETSGENTAVVAVEPDRRNQSPVDQGAT)” here?
Answer: Its value is 30 µM.

Question: And the “induction of HPSE^low cell spreading by S1ED peptides” value (CAG myeloma cells [1]; on VCAM-1, 0.3 μM peptide)?
Answer: Its value is “sufficient to induce HPSE^low cell spreading on VCAM-1”.

Question: What about the “FN-induced migration of HPSE^high cells” value (CAG myeloma cells [4]; 30 μM peptide) of the same substance?
Answer: The value was “decreased”.

Question: And the “migration of HPSE^low cells” value (CAG myeloma cells [4]; 30 μM peptide)?
Answer: Its value is “failed to induce”.

Question: What about the “migration of HPSE^low cells” value (CAG myeloma cells [4]; low concentrations, 0.3-3 μM peptide) of the same substance?
Answer: The value was “induced migration of HPSE^low cells at low concentrations”.

Question: And the “size of the tumors” value [5]?
Answer: The value was “effectively reduced the size of the tumors”.
